Data on 2 compounds can be found in BindingDB's records for doi:10.1021/jm100478y (University of North Carolina at Chapel Hill, 2010).

The target in this assay is T1, Histone-lysine N-methyltransferase EHMT2 (Homo sapiens, UniProt Q96KQ7).
T1 sequence (Q96KQ7 whole entry): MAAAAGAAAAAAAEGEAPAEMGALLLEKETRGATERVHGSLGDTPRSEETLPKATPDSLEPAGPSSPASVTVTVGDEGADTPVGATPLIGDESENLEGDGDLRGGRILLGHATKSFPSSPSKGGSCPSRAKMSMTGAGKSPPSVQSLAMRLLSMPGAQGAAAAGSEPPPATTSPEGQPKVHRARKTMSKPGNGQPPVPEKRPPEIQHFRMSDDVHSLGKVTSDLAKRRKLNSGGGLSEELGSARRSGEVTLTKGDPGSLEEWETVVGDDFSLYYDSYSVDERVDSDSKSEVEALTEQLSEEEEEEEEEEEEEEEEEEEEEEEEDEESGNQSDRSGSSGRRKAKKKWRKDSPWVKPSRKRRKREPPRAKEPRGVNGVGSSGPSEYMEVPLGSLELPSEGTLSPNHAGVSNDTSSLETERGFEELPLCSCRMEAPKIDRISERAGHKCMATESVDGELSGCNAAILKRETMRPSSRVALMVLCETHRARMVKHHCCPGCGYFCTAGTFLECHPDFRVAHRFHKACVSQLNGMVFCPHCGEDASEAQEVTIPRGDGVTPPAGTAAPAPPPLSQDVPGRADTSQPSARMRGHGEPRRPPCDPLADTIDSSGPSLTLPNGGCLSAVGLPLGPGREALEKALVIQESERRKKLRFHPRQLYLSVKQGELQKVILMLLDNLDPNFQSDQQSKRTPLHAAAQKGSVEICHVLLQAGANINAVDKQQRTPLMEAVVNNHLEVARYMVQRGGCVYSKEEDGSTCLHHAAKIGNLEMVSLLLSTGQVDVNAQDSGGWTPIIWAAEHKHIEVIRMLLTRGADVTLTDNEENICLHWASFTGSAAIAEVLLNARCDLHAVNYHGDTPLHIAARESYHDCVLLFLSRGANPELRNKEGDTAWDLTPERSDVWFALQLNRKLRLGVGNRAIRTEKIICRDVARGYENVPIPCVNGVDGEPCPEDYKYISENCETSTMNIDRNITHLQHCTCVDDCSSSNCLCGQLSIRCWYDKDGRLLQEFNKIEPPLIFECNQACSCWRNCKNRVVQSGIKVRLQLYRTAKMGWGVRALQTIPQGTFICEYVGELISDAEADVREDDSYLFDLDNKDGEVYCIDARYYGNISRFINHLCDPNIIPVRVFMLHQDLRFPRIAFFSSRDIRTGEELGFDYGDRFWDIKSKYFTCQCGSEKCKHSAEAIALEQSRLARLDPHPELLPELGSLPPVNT
The assay can be described thus: Inhibition of methyl transferase activity of G9a assessed as inhibition of H3K9 methylation by chemiluminescence based oxygen tunneling assay.

Each structure is given as a SMILES string. Where only a bound is given, the exact number is not on record here.

Take `COc1cc2nc(N3CCCN(C)CC3)nc(NC3CCNCC3)c2cc1OC` [6,7-Dimethoxy-2-(4-methyl-1,4-diazepan-1-yl)-N-(piperidin-4-yl)quinazolin-4-amine]: the IC50 was > 10 µM. Next, `COc1cc2nc(N3CCCN(C)CC3)nc(NC3CCOCC3)c2cc1OC` [6,7-dimethoxy-2-(4-methyl-1,4-diazepan-1-yl)-N-(tetrahydro-2H-pyran-4-yl)quinazolin-4-amine]: > 10 µM.

As usually defined, the IC50 is the concentration that inhibits the measured activity by half.
